# Data reported in patent US20050222312A1, “Antioxidant and antimicrobial agents and methods of use thereof” (priority 2002, published 2005).
# Assays:
# E. coli O157:H7 = assay: liquid culture growth inhibition assay; assay type: cell-based, Escherichia coli O157:H7; details: all strains tested, 24 and 48 hrs
# Protocol: (§1) For these experiments, three strains of Listeria monocytogenes (CWD 95, CWD 246 and CWD 201), three strains of Escherichia coli O157:H7 (AR, AD 305, and AD 317), Salmonella typhimurium (clinical DT 104 isolate H3380), Salmonella enteritidis (clinical isolate H3527, phage type 13A) and Salmonella heidelberg (clinical isolate F5038BG1, Maryland outbreak) were obtained. All strains were stored at −70° C., in Trypticase soy broth containing 10% (v/v) glycerol. Thawed strains were subcultured three times in Trypticase soy broth containing 0.6% (w/v) yeast extract (TSB-YE) (Difco Laboratories, Detroit, Mich.) at 35° C., 18 to 24 h before use.
# (§2) For these experiments, sub-cultured bacteria (10^8 cfu Salmonella; 10^9 cfu Listeria monocytogenes and 10^9 cfu E. coli) were each added to culture tubes containing TSB-YE. Three strains of each bacterial species were used, and 1,2,3,4-tetrahydroxybenzene was added to concentrations ranging from 1.4 mM to 14 mM. Three culture tubes were used for each 1,2,3,4-tetrahydroxybenzene concentration. The samples were incubated at 35° C. and observation of growth was recorded at 24 and 48 hrs. Results were reported as the number or tubes positive or negative for growth at 24 h and 48 h.
# Listeria monocytogenes [1] = assay: inhibition zone experiment (pour plate, filter disc); assay type: cell-based; details: 24 hrs, FIG. 3
# Protocol: as §1
# (§3) To test antimicrobial activity of 1,2,3,4-tetrahydroxybenzene, a pour plate technique was used in which 200 μl samples of subcultured bacteria (either […] colony forming units (CFU)/ml of Salmonella, 109 CFU/ml of L. monocytogenes or 10^9 CFU/ml of E. coli) were transferred to a Petri dish (100 mm×15 mm) to which 20 ml of Trypticase soy agar containing 0.6% (w/v) yeast extract (TSA-YE) was added. The contents of each Petri dish was then mixed by gently forming figure eights with the dish against the bench top. Separately, solutions of 1,2,3,4-tetrahydroxybenzene were prepared at the following concentrations: 1.4 M, 0.14 M, 0.014 M, 0.0014 M, and 0.00014 M. 16 mm filter discs comprising 1,2,3,4-tetrahydroxybenzene each then received 50 μl of a solution comprising one concentration of 1,2,3,4-tetrahydroxybenzene. A single 16 mm disc comprising 50 μl of one concentration of 1,2,3,4-tetrahydroxybenzene was then placed aseptically in the center of each Petri dish. The Petri dishes were then incubated at 35° C. Zones of growth inhibition were determined by observation at 24 hrs. All tests were run in triplicate and averaged.
# Escherichia coli = assay: as above; assay type: cell-based; details: 24 hrs, FIG. 3
# Protocol: as §1, §3
# Salmonella typhimurium [2] = assay: as above; assay type: cell-based; details: 24 hrs, FIG. 3
# Protocol: as §1, §3
# [3] = antioxidant activity, peroxide value of lard; details: 0.01% w/w, 60° C., FIG. 2
# Protocol: (§4) Aliquots of corn oil stripped of endogenous antioxidants were mixed with either 1,2,3,4-tetrahydroxybenzene (OH-Bz), or with a known antioxidant chosen from propyl gallate (PG), tert-butylhydroquinone (TBHQ), and α-tocopherol (Toc). Each antioxidant was at a concentration of 0.01% w/w (i.e., 100 ppm). The mixtures (as well as controls) were maintained at 60° C. Samples of each mixture were removed at a series of time points over a period of 28 days, and the peroxide value of each sample was measured using standard laboratory techniques (FIG. 1). Similarly, aliquots of lard were mixed with either 1,2,3,4-tetrahydroxybenzene (OH-Bz), or with a known antioxidant chosen from propyl gallate (PG), tert-butylhydroquinone (TBHQ), and α-tocopherol (Toc). Each antioxidant was at a concentration of 0.01% w/w. The mixtures (as well as controls) were maintained at 60° C. Samples of each mixture were removed at a series of time points over a period of 26 days, and the peroxide value of each sample was measured using standard laboratory techniques (FIG. 2).
# [4] = antioxidant activity, peroxide value of corn oil; details: 0.01% w/w (100 ppm), 60° C., FIG. 1
# Protocol: as §4
# Listeria monocytogenes [5] = assay: liquid culture growth inhibition assay; assay type: cell-based; details: all strains tested, 24 and 48 hrs
# Protocol: as §1, §2
# Salmonella cocktail = assay: liquid culture growth inhibition assay; assay type: cell-based
# Protocol: as §1, §2
# Salmonella typhimurium [6] = assay: liquid culture growth inhibition assay; assay type: cell-based; details: all strains tested, 24 and 48 hrs
# Protocol: as §1, §2
# Salmonella heidelberg = assay: liquid culture growth inhibition assay; assay type: cell-based; details: all strains tested, 24 and 48 hrs
# Protocol: as §1, §2
# Salmonella enteritidis = assay: liquid culture growth inhibition assay; assay type: cell-based; details: all strains tested, 24 and 48 hrs
# Protocol: as §1, §2
# forestomachs of rats = details: Nera et al., Toxicology 32:197-213 (1984); cited from earlier work
# [7] = 50 μl at 1.4 M or 0.14 M on 16 mm filter disc
# [8] = concentrations lower than 0.14 M, 16 mm filter disc
SMILES,concentration at which complete inhibition occurred (E. coli O157:H7) [mM],zones of growth inhibition (Listeria monocytogenes [1]; [7]),zones of growth inhibition (Listeria monocytogenes [1]; [8]),zones of growth inhibition (Escherichia coli; [7]),zones of growth inhibition (Escherichia coli; [8]),zones of growth inhibition (Salmonella typhimurium [2]; [7]),zones of growth inhibition (Salmonella typhimurium [2]; [8]),antioxidant activity (peroxide value) ([3]; 26 days),period over which antioxidant activity is maintained [3],antioxidant activity (peroxide value) ([4]; 28 days),period over which antioxidant activity is maintained [4],concentration at which complete inhibition occurred (Listeria monocytogenes [5]) [mM],concentration at which complete inhibition occurred (Salmonella cocktail) [mM],concentration at which complete inhibition occurred (Salmonella typhimurium [6]) [mM],concentration at which complete inhibition occurred (Salmonella heidelberg) [mM],concentration at which complete inhibition occurred (Salmonella enteritidis) [mM],carcinogenicity (forestomachs of rats)
"Oc1ccc(O)c(O)c1O [THB, 1,2,3,4-tetrahydroxybenzene]",≥ 5.6,led to appearance of zones of inhibition,did not form zones of inhibition greater than the diameter of the filter,led to appearance of zones of inhibition,did not form zones of inhibition greater than the diameter of the filter,led to appearance of zones of inhibition,did not form zones of inhibition greater than the diameter of the filter,"highly effective antioxidant, equal or superior to PG, TBHQ, PG, and α-tocopherol",at least 26 days,"highly effective antioxidant, equal or superior to PG, TBHQ, PG, and α-tocopherol",at least 26 days,≥ 5.6,≥ 5.6,≥ 5.6,≥ 5.6,≥ 5.6,–
"COc1ccc(O)c(C(C)(C)C)c1 [BHA, butylated hydroxyanisole]",–,–,–,–,–,–,–,–,–,–,–,–,–,–,–,–,implicated as a carcinogen promoting formation of tumors in the forestomachs of rats
